pEC50: −log10 of the molar value.
Assays:
[1] = target: T1, Peroxisome proliferator-activated receptor gamma (Homo sapiens, UniProt P37231); assay type: functional, cell-based
T1 sequence (P37231 whole entry): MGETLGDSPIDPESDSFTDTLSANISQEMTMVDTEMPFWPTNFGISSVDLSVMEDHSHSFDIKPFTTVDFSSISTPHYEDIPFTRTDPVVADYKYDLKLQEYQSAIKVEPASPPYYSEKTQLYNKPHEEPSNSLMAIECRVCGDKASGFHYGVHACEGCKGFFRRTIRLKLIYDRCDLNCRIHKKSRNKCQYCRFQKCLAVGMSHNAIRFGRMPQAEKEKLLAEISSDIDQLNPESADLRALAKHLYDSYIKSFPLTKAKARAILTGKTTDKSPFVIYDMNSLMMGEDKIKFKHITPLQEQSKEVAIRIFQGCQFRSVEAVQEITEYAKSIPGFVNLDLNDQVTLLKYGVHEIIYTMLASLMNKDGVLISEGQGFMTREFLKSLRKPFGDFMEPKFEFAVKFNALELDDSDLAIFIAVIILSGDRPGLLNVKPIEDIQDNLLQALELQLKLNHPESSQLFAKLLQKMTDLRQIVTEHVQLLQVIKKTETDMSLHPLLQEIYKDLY
Description: Agonist activity at GAL4-fused PPARgamma assessed as transcriptional activity by cell based assay

[2] = target: T2, Peroxisome proliferator-activated receptor alpha (Homo sapiens, UniProt Q07869); test: Agonist activity at GAL4-fused PPARalpha assessed as transcriptional activity by cell based assay; assay type: functional
T2 sequence (Q07869 whole entry): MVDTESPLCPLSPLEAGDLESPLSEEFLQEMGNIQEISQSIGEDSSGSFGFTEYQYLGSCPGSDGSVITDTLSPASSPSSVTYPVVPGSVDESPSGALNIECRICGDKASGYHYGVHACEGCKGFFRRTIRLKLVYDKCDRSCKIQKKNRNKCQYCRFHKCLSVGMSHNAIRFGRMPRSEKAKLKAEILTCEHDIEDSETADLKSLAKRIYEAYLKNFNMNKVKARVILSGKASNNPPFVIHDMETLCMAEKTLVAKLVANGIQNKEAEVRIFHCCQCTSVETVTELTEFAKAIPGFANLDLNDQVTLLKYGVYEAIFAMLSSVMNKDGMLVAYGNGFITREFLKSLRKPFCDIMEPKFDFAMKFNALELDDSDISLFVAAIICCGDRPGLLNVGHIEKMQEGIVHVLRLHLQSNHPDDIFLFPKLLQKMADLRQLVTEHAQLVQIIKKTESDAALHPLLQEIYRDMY

Mus musculus [3] = test: Toxicity in db/db mouse type 2 diabetic model assessed as reduction of body weight at 10 mg/kg, po administered for 14 days; assay type: organism-based; set-up: dose 10 mg/kg, route oral; scale not given: the % may be the effect or the level left; conditions: in vivo, 336 h
Mus musculus [4] = test: Antidiabetic activity in db/db mouse type 2 diabetic model assessed as reduction of plasma triglyceride level at 10 mg/kg, po administered for 14 days; assay type: functional; set-up: scale not given: the % may be the effect or the level left
Mus musculus [5] = test: Antidiabetic activity in db/db mouse type 2 diabetic model assessed as reduction of plasma glucose level at 10 mg/kg, po administered for 14 days; assay type: functional; set-up: scale not given: the % may be the effect or the level left
Mus musculus [6] = test: Toxicity in db/db mouse type 2 diabetic model assessed as reduction of body weight at 30 mg/kg, po administered for 14 days; assay type: organism-based; set-up: dose 30 mg/kg, route oral; scale not given: the % may be the effect or the level left; conditions: in vivo, 336 h
Mus musculus [7] = test: Antidiabetic activity in db/db mouse type 2 diabetic model assessed as reduction of plasma triglyceride level at 30 mg/kg, po administered for 14 days; assay type: functional; set-up: scale not given: the % may be the effect or the level left
Mus musculus [8] = test: Antidiabetic activity in db/db mouse type 2 diabetic model assessed as reduction of plasma glucose level at 30 mg/kg, po administered for 14 days; assay type: functional; set-up: scale not given: the % may be the effect or the level left

pEC50 [1]	pEC50 [2]	Structure (SMILES)	also measured
6.05	7.44	Cc1oc(-c2ccccc2)nc1CN(Cc1ccco1)Cc1ccc(OC(C)(C)C(=O)O)cc1Cl	
6.48	7.49	COc1cc(OC(C)(C)C(=O)O)ccc1CN(Cc1ccco1)Cc1nc(-c2ccccc2)oc1C	
8.33	8.77	Cc1cc(CN(Cc2ccco2)Cc2nc(-c3ccccc3)oc2C)cc(C)c1OC(C)(C)C(=O)O	Activity (Mus musculus [3]): -7.6%; Activity (Mus musculus [4]): 88%; Activity (Mus musculus [5]): 74%
6.74	8.05	COc1cc(CN(Cc2ccco2)Cc2nc(-c3ccccc3)oc2C)ccc1OC(C)(C)C(=O)O	
7.38	8.41	Cc1cc(CN(Cc2ccco2)Cc2nc(-c3ccccc3)oc2C)ccc1OC(C)(C)C(=O)O	
7.15	8.29	Cc1oc(-c2ccccc2)nc1CN(Cc1ccc(OC(C)(C)C(=O)O)c(Cl)c1)Cc1ccco1	
6.17	7.89	Cc1oc(-c2ccccc2)nc1CN(Cc1ccc(OC(C)(C)C(=O)O)cc1)Cc1ccco1	
6.51	8.09	Cc1oc(-c2cccc(Br)c2)nc1CN(Cc1ccc(OC(C)(C)C(=O)O)cc1)Cc1ccco1	
< 4.60	< 4.60	Cc1oc(-c2cccc(Br)c2)nc1CN(Cc1ccc(OC(C)(C)C(=O)O)cc1)C(=O)c1ccccc1	
6.15	7.59	COc1ccc(CN(Cc2ccc(OC(C)(C)C(=O)O)cc2)Cc2nc(-c3cccc(Br)c3)oc2C)cc1	
5.89	6.30	CCCCN(Cc1ccc(OC(C)(C)C(=O)O)cc1)Cc1nc(-c2cccc(Br)c2)oc1C	
5.66	7.25	Cc1oc(-c2cccc(Br)c2)nc1CN(Cc1ccccc1)Cc1ccc(OC(C)(C)C(=O)O)cc1	
5.11	6.17	Cc1oc(-c2cccc(Br)c2)nc1CNCc1ccc(OC(C)(C)C(=O)O)cc1	
< 4.60	< 4.60	Cc1oc(-c2ccccc2)nc1CC(=O)Nc1ccc(OC(C)(C)C(=O)O)cc1	
< 4.60	5.00	Cc1oc(-c2ccccc2)nc1CNCc1ccc(OC(C)(C)C(=O)O)cc1	
5.06	5.14	Cc1oc(-c2ccccc2)nc1CNc1ccc(OC(C)(C)C(=O)O)cc1	
4.80	5.28	Cc1oc(-c2ccccc2)nc1CCNc1ccc(OC(C)(C)C(=O)O)cc1	
6.10	7.09	Cc1oc(-c2cccc(Br)c2)nc1CCOc1ccc(OC(C)(C)C(=O)O)cc1	
< 4.60	6.30	Cc1oc(-c2ccccc2)nc1CCOc1ccc(OC(C)(C)C(=O)O)cc1	Activity (Mus musculus [6]): 8.4%; Activity (Mus musculus [7]): 56%; Activity (Mus musculus [8]): 25%
		CN(CCOc1ccc(CC2SC(=O)NC2=O)cc1)c1ccccn1 (stereo not drawn) [ROSIGLITAZONE]	Activity (Mus musculus [3]): 10.1%; Activity (Mus musculus [4]): 58%; Activity (Mus musculus [5]): 54%

Structure (SMILES)	pEC50 [1]	pEC50 [2]	also measured
COc1ccc(OC(=O)N(CC(=O)O)Cc2ccc(OCCc3nc(-c4ccccc4)oc3C)cc2)cc1 [MURAGLITAZAR]		6.52	

From ChEMBL document CHEMBL2203276, “Design, synthesis and evaluation of novel zwitterionic compounds as PPARα/γ dual agonists (1)” (Bioorg Med Chem Lett, 2012)
